Test results taken from patent US20250108038A1 (priority 2023, published 2025).
Values joined by “and” are separate entries in the source; they are usually repeats but may differ in a detail not shown here. Identical values can stand only once. Like-named read-outs stand apart in the source and are kept apart here.

Assays:
[1] = target: T1, CYP3A4 (Homo sapiens, UniProt P08684); test: in vitro; conditions: both, pH 7.4, Inhibition at Highest Test Article Concentration
[2] = target: CYP2C9 (Homo sapiens, UniProt P11712); test: in vitro; conditions: both, pH 7.4
[3] = Stability in beagle dog plasma
Procedure: Pooled (N≥3) male SD rat, beagle dog and mixed gender human plasma with EDTA-K2 as anticoagulant were purchased from BioIVT (NY, USA) and stored in a −70° C. freezer before use.
Incubations were conducted in 96-well plate format. The time points defined for this study are 0, 5, 15, 30 and 60 minutes.
For positive controls, the rat plasma was spiked with enalapril, the dog plasma spiked with bisacodyl and the human plasma was spiked with propantheline. All spiked plasma sample plates were incubated in a water bath at 37° C. with shaking.
At end of each time point, samples were immediately quenched with three volume of cold quenching solution. All sample plates were mixed thoroughly by shaking for approximately 10 minutes and centrifuged at 3220×g for 15 minutes. Subsequently, 100 μL of supernatant was removed from each well, mixed with 100 μL water in a new 96-well plate and subjected to LC-MS/MS analysis.
Concentrations of test article, metabolite, and control compounds in the samples were analyzed by LC-MS/MS semi-quantitatively. […] The peak area ratios of analyte/internal standard were used to semi-quantitatively determine the concentrations.
The peak area ratios (PAR) of analyte/internal standard were used to semi-quantitatively determine the concentration of test article and control compounds, and calculate the percent remaining with the following equation:
The elimination rate (ke) was calculated from a log linear plot of % remaining versus time. The half-life was calculated using the following equation:

[4] = target: T1, CYP3A4; conditions: for Inhibition at Highest Test Article Concentration: 3A4, at 50 μM; for IC50: pooled human liver microsomes, 30 min
[5] = Brain homogenate binding by equilibrium dialysis; assay type: in vitro ADME, mouse; conditions: for % Recovery / % Unbound: mouse brain, 2 μM, 37° C.
Procedure: Samples of spiked plasma and blank buffer (Dulbecco's phosphate-buffered saline, DPBS) and spiked brain homogenate and blank DPBS added to opposing sides of a dialysis membrane were collected from triplicate equilibrium dialysis chambers prior to (t=0) and following 1, 2, 4 and 6 hours of incubation at 37° C. […] The LC-MS/MS method(s) for analytes (Compound I-19, Compound A and Compound B) was cross-qualified for the analysis of the DPBS samples.
A secondary stock solution of 200 μM (74.2 ug/mL) will be prepared in DMSO. This secondary stock solution will then be diluted 100-fold to 2 μM ([…]) with male CD-1 mouse plasma and brain homogenate (1:2 v/v brain:Dulbecco's phosphate buffered saline, pH 7-7.2) or buffer (DPBS).
To 2.97 mL aliquots of thawed mouse plasma or brain homogenate warmed to 37° C., 30 ul aliquots of the secondary stock solution of the test compound will be added for final concentrations of 2 μM (0.742 ug/mL). An appropriate volume of warmed buffer (DPBS) will also be spiked with the test compound at a concentration of 2 μM ([…]). Triplicate aliquots (50 μL) of each spiked plasma, brain homogenate and buffer solution will be collected prior to dialysis into labeled 1.5 mL polypropylene tubes and then stored at approximately −80° C. until bioanalysis.
Equilibrium dialysis will be performed in a 96-well Teflon dialysis unit (HTDialysis, Gales Ferry, CT). Each well of the unit consists of two chambers separated by a vertically aligned dialysis membrane (regenerated cellulose) with a molecular weight cut-off of 12-14 KDa. The equilibrium dialysis membranes will first be presoaked in deionized water for 30 min, then soaked in 20% ethanol for 20 min, followed by rinsing twice with deionized water.
The equilibrium dialysis apparatus will be assembled according to the manufacturer's directions. One chamber of each well will be immediately filled with 150 μL of blank buffer (to prevent membrane dehydration). Aliquots (150 μL) of spiked plasma, spiked brain homogenate and spiked buffer will then be added to the opposing chamber in each well. Three wells per time point per matrix will be used. The top of the plate will be sealed with an adhesive sealing film to prevent evaporation and maintain constant pH during incubation.
The dialysis apparatus will be incubated at 37° C. in an orbital shaker/incubator (Lab-Line Enviro Shaker) set at 75 rpm.
Following 1, 2, 4 and 6 hours of incubation, samples from each plasma, brain homogenate and buffer compartment will be collected and the sample volume will be documented.

[6] = Plasma and brain concentrations after 3 mg/kg i.p. in male CD-1 mice; conditions: for fu* Cmax: fu by equilibrium dialysis after 6 h
Procedure: Following dosing, three animals were sacrificed per time-point for the collection of terminal plasma and brain. […] Pharmacokinetics (PK) parameters for plasma and whole brain were estimated from the mean plasma and brain concentration versus time profiles.
The animals will be acclimatized to their new environment for a minimum of 5 days prior to study start.
Any unused dosing solutions will be stored at approximately −80° C. until transferred on dry ice to the bioanalytical facility.
The animals will be dosed intra-peritoneally (i.p.) into the lower right quadrant of the abdomen using a 0.5 mL Tuberculin syringe with attached needle 27 G×[…].
Whole blood will be collected via cardiac puncture under isoflurane anesthesia from three mice at each time-point at the collection times outlined in Table 2. Up to 0.8 mL of blood will be collected into 0.8 mL mini-collect K2EDTA coated tubes. Blood tubes will be centrifuged at 3200×g for 5 min. at 4° C. and plasma transferred into 1.5 mL flip top tubes. One vial of plasma for each collection time point will stored at approximately […] until transferred on dry ice to the bioanalytical facility.
Following cardiac puncture, mice will be perfused with 12 mL of ice-cold PBS via the left ventricle. Brains will then be excised, blotted and placed into pre-weighed 5 mL self standing green top sample tubes. Tubes containing brains will be re-weighed and then snap frozen in liquid nitrogen. Brain samples will be stored frozen at approximately −80° C. until transferred on dry ice to the bioanalytical facility.

[7] = target: CYP2D6 (Homo sapiens, UniProt P10635)
[8] = 3 mg/kg i.p. Compound I-19, male CD-1 mice
[9] = after 3 mg/kg i.p. Compound I-19
[10] = after 3 mg/kg i.p. Compound I-19, below the lower levels of quantitation
[11] = brain, 3 mg/kg i.p. Compound I-19, male CD-1 mice
[12] = plasma, 3 mg/kg i.p. Compound I-19, male CD-1 mice

T1 sequence (P08684 whole entry): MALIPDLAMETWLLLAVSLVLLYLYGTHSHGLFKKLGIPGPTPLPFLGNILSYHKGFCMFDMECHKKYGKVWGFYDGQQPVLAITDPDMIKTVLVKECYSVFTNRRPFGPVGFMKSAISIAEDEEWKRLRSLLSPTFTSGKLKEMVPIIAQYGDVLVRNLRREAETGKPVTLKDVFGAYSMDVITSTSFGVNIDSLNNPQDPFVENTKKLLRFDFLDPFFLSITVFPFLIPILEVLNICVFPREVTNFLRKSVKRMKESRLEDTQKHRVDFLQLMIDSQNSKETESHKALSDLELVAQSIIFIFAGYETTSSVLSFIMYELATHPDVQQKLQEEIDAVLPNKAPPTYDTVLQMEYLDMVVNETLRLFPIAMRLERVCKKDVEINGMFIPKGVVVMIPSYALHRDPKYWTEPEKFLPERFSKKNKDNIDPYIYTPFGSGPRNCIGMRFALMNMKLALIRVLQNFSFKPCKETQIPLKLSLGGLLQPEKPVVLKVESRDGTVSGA
CYP2D6, sequence (P10635 whole entry): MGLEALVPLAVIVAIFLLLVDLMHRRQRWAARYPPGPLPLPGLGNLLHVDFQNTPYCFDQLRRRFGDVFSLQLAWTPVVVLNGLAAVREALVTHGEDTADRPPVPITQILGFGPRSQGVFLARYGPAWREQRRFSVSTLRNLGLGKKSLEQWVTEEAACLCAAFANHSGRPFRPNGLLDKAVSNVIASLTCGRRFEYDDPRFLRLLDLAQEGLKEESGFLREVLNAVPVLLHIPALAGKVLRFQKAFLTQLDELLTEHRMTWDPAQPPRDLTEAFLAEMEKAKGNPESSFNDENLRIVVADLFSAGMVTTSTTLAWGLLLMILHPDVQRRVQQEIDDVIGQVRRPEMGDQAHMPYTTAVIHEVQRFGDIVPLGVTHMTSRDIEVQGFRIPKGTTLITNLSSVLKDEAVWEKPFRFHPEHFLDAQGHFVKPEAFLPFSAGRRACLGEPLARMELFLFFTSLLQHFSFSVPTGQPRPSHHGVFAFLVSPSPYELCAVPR
CYP2C9, sequence (P11712 whole entry): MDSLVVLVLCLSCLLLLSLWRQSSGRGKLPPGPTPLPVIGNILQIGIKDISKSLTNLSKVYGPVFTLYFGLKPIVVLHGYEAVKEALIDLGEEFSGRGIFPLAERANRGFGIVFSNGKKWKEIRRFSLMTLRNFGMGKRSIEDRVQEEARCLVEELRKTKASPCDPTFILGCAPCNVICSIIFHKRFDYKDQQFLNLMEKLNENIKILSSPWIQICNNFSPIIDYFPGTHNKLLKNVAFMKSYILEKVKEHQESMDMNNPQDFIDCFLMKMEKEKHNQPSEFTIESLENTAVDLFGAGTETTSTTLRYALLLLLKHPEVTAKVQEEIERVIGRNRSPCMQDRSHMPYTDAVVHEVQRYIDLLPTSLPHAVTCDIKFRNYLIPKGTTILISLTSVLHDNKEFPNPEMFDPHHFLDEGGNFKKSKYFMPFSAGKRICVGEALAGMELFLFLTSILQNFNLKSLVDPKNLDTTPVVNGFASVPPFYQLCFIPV

OC1(c2ccc(Cl)cc2)c2ccccc2C2=NCCN21 (centres unmarked) [Compound A, 5-(4-chlorophenyl)-2,3-dihydroimidazo[1,2-b]isoindol-5-ol, reference compound]
inhibition at 10 µM ([1]; 3A4, Midazolam): 11.7% | inhibition at 10 µM ([1]; 3A4, Testosterone): 14% | inhibition at 10 µM [2]: 10.2%

COCCOC1(c2ccc(Cl)cc2)c2ccccc2C2=NCCN21 (centres unmarked) [Compound I-4]
Compound A formed (Aa/Ai) ([3]; 0 min): 0.48 | % Remaining ([3]; 2.0 μM, 0 min): 100% | Aa/Ai Mean (N = 2) ([3]; 2.0 μM, 0 min): 2.24 | % Remaining ([3]; 2.0 μM, 5 min): 93.5% | Aa/Ai Mean (N = 2) ([3]; 2.0 μM, 5 min): 2.10 | % Remaining ([3]; 2.0 μM, 15 min): 92.0% | Aa/Ai Mean (N = 2) ([3]; 2.0 μM, 15 min): 2.07 | % Remaining ([3]; 2.0 μM, 30 min): 89.2% | Aa/Ai Mean (N = 2) ([3]; 2.0 μM, 30 min): 2.00 | % Remaining ([3]; 2.0 μM, 60 min): 83.7% | Aa/Ai Mean (N = 2) ([3]; 2.0 μM, 60 min): 1.88 | T1/2 ([3]; 2.0 μM, 60 min incubation): >187 min | Compound A formed (Aa/Ai) ([3]; 5 min): 0.46 | Compound A formed (Aa/Ai) ([3]; 15 min): 0.46 | Compound A formed (Aa/Ai) ([3]; 30 min): 0.42 | Compound A formed (Aa/Ai) ([3]; 60 min): 0.39

Clc1ccc(C2(OCC3OCCO3)c3ccccc3C3=NCCN32)cc1 (centres unmarked) [Compound I-19]
Inhibition at Highest Test Article Concentration ([4]; Midazolam): 28.4 at 50 μM % | Inhibition at Highest Test Article Concentration ([4]; Testosterone): 57.5 at 50 μM % | IC50 ([4]; substrate midazolam): did not inhibit | IC50 ([4]; substrate testosterone): did not inhibit | % recovery, brain homogenate ([5]; 6 hours of dialysis): 51.3±2.58% | % Recovery ([5]; dialysis time 1 h): 87.8 ± 2.40% | % Unbound ([5]; dialysis time 1 h): 1.33% | % Recovery ([5]; dialysis time 2 h): 83.1 ± 1.58% | % Unbound ([5]; dialysis time 2 h): 1.64 ± 0.181% | % Recovery ([5]; dialysis time 4 h): 65.1 ± 4.05% | % Unbound ([5]; dialysis time 4 h): 2.46 ± 0.183% | % Recovery ([5]; dialysis time 6 h): 51.3 ± 2.58% | % Unbound ([5]; dialysis time 6 h): 3.31 ± 0.385% | Cmax in brain relative to plasma ([6]; 3 mg/kg i.p.): 1.8 fold | Maximum brain concentration (Cmax) of Compound I-19 ([6]; 3 mg/kg i.p.): 1182 nmol/kg | Tmax of Compound I-19 (plasma and brain) ([6]; 3 mg/kg i.p.): 5 min | apparent half-life in brain ([6]; 3 mg/kg i.p.): 25.6 min and 25.2 min | apparent half-life in plasma ([6]; 3 mg/kg i.p.): 25.4 min and 25.2 min | (fu* AUC0-inf)brain/(fu*AUC0-inf)plasma ratio (Kp, uu) [6, 8]: 2.12 | Brain/plasma AUC0-inf ratio (Kp) [6, 8]: 2.38 | brain to plasma partitioning coefficient (Kp) ([6]; 3 mg/kg i.p., AUC0-inf based): 2.38 | brain to plasma unbound partition coefficient (Kp,uu) ([6]; 3 mg/kg i.p., corrected for unbound fractions): 2.12 | Tmax of Compound A in brain [6, 9]: 45 min | Tmax of Compound A in plasma [6, 9]: 15 min | peak brain concentration of Compound A [6, 9]: 60.3 nmol/kg | peak plasma concentration of Compound A [6, 9]: 48.2 nmol/L | brain concentration of Compound B [6, 10]: < 3 nmol/kg | plasma concentration of Compound B [6, 10]: < 1 nM | Cmax ([6]; brain (expressed as nmol/kg = nmol/L per footnote), 3 mg/kg i.p. Compound I-19, male CD-1 mice): 1180 nM | AUC0-inf [6, 11]: 0.521 µM·h | Apparent T1/2 [6, 11]: 25.6 min | Tmax [6, 11]: 5 min | fu* AUC0-inf [6, 11]: 0.0172 µM·h | fu* Cmax [6, 11]: 39.1 nM | AUC0-inf [6, 12]: 0.218 µM·h | Apparent T1/2 [6, 12]: 25.4 min | Cmax [6, 12]: 648 nM | Tmax [6, 12]: 5 min | fu* AUC0-inf [6, 12]: 0.00813 µM·h | fu* Cmax [6, 12]: 24.1 nM | Cmax ([6]; read-out: Maximum plasma concentration (Cmax) of Compound I-19, 3 mg/kg i.p.): 648 nM | Inhibition at Highest Test Article Concentration ([7]; 2D6, Dextromethorphan, at 50 μM): 84.3 at 50 μM % | IC50 ([7]; microsomes): 8.7 µM
